Experimental data taken from US7981633B2, “Method for measuring tyrosine kinase phosphorylation” (Merck Patent GmbH, priority 2005, dated 2011).

Tests used:
FAK = FAK (Homo sapiens, UniProt Q05397); experiment: Luminex bead sandwich assay of FAK autophosphorylation in HT29 cell lysate after FCS activation; assay type: cell-based; settings: HT29 cells, 30 μM inhibitor 45 min
IGFR1 = IGFR1 (Homo sapiens, UniProt P08069); experiment: Luminex bead sandwich assay of IGFR1 autophosphorylation in HT29 cell lysate after IGF activation; assay type: cell-based; settings: HT29 cells, 30 μM inhibitor 45 min, IGF 100 ng/ml
Met = Met (Homo sapiens, UniProt P08581); experiment: Luminex bead sandwich assay of Met autophosphorylation in HT29 cell lysate after HGF activation; settings: HT29 cells, 30 μM inhibitor 45 min, HGF 100 ng/ml
Chain of Met (P08581 25-1390): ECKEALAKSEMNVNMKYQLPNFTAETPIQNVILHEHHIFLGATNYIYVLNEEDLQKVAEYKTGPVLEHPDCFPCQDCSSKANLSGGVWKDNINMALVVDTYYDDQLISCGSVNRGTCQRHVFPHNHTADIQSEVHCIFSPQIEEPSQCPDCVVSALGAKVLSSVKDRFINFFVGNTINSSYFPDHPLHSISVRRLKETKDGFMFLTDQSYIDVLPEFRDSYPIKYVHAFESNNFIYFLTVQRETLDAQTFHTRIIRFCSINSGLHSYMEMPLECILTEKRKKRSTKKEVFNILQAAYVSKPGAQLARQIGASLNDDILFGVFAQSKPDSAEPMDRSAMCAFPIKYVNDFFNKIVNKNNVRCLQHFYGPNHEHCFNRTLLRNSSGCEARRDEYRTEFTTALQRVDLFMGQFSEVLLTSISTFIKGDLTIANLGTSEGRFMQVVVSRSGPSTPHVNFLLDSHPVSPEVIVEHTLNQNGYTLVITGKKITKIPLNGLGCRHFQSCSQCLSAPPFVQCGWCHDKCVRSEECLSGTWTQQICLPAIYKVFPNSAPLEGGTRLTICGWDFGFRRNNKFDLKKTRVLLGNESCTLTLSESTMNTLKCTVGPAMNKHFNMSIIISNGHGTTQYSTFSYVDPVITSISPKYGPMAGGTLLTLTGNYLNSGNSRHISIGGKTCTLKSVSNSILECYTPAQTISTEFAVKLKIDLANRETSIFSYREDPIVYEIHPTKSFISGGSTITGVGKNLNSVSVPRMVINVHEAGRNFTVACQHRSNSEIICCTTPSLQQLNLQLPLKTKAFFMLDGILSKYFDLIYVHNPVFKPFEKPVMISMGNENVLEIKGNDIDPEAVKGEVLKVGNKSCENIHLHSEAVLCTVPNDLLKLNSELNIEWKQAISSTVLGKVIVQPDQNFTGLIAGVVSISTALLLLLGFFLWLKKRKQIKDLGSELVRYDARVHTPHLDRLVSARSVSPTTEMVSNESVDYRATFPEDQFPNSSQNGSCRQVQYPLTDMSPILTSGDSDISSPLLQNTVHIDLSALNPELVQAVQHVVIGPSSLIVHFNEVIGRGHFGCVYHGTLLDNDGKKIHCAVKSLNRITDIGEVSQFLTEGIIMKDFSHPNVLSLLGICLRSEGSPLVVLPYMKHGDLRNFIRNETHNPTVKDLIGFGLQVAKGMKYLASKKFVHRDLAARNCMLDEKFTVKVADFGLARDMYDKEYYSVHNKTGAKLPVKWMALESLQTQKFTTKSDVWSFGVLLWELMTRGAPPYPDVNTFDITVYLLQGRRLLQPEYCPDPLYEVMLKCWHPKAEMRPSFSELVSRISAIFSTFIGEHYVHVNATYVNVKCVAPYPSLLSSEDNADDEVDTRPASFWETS
Procedure: Human tumor cell line HT29 (colorectal carcinoma) were obtained from ATCC and maintained in Dulbecco's modified Eagle's medium containing 10% fetal calf serum at 37° C. in 5% CO2. 16-20 h before inhibitor treatment HT29 cells were starved in medium without fetal calf serum. Cells were incubated for 45 min with 30 μM kinase inhibitor (EGFR-lnhibitor, FAK-inhibitor, IGFR1-inhibitor or Met-Inhibitor) or in medium without kinase inhibitor as a positive control.
Activation of the kinases was initiated for 10-15 min with 100 ng/ml of the corresponding ligands EGF, IGF, HGF for Met kinase or fetal calf serum (FCS) for FAK kinase. […]
2.5×10^6 Luminex microspheres were coupled with 50 μg/ml antibody as described by the manufacturer (capture antibodies for EGFR, IGFR, MET and Fak were obtained from R&D-Systems and Upstate). […] After three wash steps with assay buffer, phosphorylated tyrosin-residues were detected with a biotinylated anti-phospho-tyrosin antibody (1 h agitation at room temperature; Santa Cruz Biotechnology) and phycoerythrin-conjugated Streptavidin (45 min agitation at room temperature; Dianova). Microspheres were analysed in a Luminex™ 100 machine as described by the manufacturer.

Chain of FAK (Q05397 whole entry): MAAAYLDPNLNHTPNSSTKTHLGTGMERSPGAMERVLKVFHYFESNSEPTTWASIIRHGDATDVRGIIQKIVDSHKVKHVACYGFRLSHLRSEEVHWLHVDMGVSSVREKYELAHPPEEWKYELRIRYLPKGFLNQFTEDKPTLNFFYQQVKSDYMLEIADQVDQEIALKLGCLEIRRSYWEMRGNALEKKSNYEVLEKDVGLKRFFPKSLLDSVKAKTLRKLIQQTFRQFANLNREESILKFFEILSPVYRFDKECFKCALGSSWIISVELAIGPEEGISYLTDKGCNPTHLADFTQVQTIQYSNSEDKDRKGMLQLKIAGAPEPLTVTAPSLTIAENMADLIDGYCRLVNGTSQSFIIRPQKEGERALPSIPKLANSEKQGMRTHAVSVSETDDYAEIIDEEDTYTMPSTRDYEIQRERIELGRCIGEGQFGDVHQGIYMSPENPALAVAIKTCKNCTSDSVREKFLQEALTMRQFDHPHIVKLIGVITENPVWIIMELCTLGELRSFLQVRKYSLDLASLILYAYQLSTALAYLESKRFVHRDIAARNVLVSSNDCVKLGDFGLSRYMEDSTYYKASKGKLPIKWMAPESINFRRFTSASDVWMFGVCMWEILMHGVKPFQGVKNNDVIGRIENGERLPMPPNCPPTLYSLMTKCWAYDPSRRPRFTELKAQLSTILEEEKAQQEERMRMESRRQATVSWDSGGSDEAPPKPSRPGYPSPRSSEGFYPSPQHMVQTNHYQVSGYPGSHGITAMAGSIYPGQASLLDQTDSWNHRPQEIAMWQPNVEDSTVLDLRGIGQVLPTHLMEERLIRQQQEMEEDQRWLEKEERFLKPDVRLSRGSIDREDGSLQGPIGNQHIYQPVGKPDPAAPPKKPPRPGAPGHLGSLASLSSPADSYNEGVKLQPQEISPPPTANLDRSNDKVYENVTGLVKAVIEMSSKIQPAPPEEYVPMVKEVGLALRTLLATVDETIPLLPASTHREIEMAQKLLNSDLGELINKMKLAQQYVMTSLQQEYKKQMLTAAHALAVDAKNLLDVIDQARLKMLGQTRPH
Chain of IGFR1 (P08069 31-1367): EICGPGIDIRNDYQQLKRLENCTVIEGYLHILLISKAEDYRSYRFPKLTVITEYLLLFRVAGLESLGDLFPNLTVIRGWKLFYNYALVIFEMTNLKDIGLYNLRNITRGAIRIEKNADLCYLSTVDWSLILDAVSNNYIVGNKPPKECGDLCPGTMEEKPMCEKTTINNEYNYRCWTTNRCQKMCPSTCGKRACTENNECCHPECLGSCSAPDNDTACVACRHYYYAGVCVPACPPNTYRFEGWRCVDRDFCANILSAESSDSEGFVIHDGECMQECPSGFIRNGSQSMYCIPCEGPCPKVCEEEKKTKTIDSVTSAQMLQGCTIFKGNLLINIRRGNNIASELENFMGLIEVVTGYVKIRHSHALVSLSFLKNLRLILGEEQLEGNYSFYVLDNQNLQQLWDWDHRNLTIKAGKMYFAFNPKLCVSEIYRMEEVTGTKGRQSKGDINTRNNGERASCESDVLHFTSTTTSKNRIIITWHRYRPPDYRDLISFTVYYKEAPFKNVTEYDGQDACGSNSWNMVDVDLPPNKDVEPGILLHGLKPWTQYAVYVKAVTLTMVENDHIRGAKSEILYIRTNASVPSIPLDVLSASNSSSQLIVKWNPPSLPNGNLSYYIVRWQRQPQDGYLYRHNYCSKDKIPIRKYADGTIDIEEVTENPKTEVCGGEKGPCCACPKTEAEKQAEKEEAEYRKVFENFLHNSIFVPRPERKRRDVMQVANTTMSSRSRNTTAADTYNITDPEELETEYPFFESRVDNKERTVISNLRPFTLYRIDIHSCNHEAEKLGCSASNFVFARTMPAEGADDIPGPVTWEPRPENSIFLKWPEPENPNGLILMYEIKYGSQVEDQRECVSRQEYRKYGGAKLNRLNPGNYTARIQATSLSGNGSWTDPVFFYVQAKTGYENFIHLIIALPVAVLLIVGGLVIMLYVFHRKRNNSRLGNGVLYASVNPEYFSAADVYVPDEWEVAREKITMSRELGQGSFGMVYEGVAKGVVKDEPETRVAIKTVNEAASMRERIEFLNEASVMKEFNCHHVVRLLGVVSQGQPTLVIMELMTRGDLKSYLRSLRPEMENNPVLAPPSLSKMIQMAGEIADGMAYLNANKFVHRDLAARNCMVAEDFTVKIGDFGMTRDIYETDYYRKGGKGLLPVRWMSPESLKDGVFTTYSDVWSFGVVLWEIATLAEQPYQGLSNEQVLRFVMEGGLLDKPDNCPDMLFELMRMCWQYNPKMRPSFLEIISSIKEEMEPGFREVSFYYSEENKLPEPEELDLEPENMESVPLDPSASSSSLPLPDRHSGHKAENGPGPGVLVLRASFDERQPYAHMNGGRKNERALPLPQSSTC

Row | FAK-phosphorylation, mean fluorescence intensity (MFI) (FAK; multiple capture antibodies (EGFR, IGFR, FAK, Met) in one cavity, control without inhibitor MFI=1143) | FAK-phosphorylation, mean fluorescence intensity (MFI) (FAK; single capture antibody (FAK) in one cavity, control without inhibitor MFI=957) | IGFR1-phosphorylation, mean fluorescence intensity (MFI) (IGFR1; multiple capture antibodies (EGFR, IGFR, FAK, Met) in one cavity, control without inhibitor MFI=673) | IGFR1-phosphorylation, mean fluorescence intensity (MFI) (IGFR1; single capture antibody (IGFR1) in one cavity, control without inhibitor MFI=529) | Met-phosphorylation, mean fluorescence intensity (MFI) (Met; multiple capture antibodies (EGFR, IGFR, FAK, Met) in one cavity, control without inhibitor MFI=817) | Met-phosphorylation, mean fluorescence intensity (MFI) (Met; single capture antibody (Met) in one cavity, control without inhibitor MFI=675) | SMILES
1 | 39 | 37 | 3 | 3 |  |  | COc1cc(Nc2nccc(Nc3cnc4ccccc4c3)n2)cc(OC)c1OC [FAK-Kinase inhibitor]
2 |  |  |  |  | 9 | 9 | Cc1[nH]c(/C=C2\C(=O)Nc3ccc(S(=O)(=O)Cc4c(Cl)cccc4Cl)cc32)c(C)c1C(=O)N1CCC[C@@H]1CN1CCCC1 [Met-Kinase inhibitor]
